We go through one compound from patent US7683024B2, “Polyaminoacids functionalized by alpha tocopherol and uses thereof, particular for therapeutic applications” (Flamel Technologies, priority 2002, dated 2010).

Molecules are shown by their SMILES.

The nature of this series: Comparative analysis of solutions at 15 mg/ml in water at pH 7.4 (phosphate buffer). It is filed as physicochemical.

Regarding `Cc1c(C)c2c(c(C)c1OC(=O)CCC(=O)O)CC[C@@](C)(CCC[C@H](C)CCC[C@H](C)CCCC(C)C)O2` [α-tocopherol succinate], the Appearance of solution entry is given as “milky solution”.
